Format in all cases: cell-based
Common to all, as to conditions: mda-mb-231, 24 h

Data set [1] deals with MDA-MB-231. In words: Toxicity in human MDA-MB-231 cells assessed as reduction in cell viability at 10 uM incubated for 24 hrs by MTS assay.
Data set [2] relates to MDA-MB-231. Description: Toxicity in human MDA-MB-231 cells assessed as reduction in cell viability at <1 uM incubated for 24 hrs by MTS assay. (In general: Tetrazolium assays rely on reduction of a dye to a coloured formazan, in cell work by metabolically active cells.)
In data set [3] the test system is MDA-MB-231. In words: Toxicity in human MDA-MB-231 cells assessed as reduction in cell viability at >1 uM incubated for 24 hrs by MTS assay.

Regarding `COC(=O)CCC(=O)N1Cc2ccccc2C[C@H]1C(=O)NCC(=O)N1C2CCCCC2C[C@H]1C(=O)NC(CCCNC(=N)N)P(=O)(Oc1ccccc1)Oc1ccccc1` (stereo partly drawn), in data set [1], the Activity result is “Non-Toxic”.

`CN1\C(=C/C=C/C=C/C2N(CCCCCC(=O)NCCCCCC(=O)N3Cc4ccccc4C[C@H]3C(=O)NCC(=O)N3C4CCCCC4C[C@H]3C(=O)NC(CCCNC(=N)N)P(=O)(Oc3ccccc3)Oc3ccccc3)c3ccccc3C2(C)C)C(C)(C)c2ccccc21` (stereo partly drawn): the figures for the Activity entry in data set [2] and in data set [3] were “Non-Toxic” and “Toxic”, respectively.
